From US12667551B2, “Renal function maintenance and protection agent, and method for evaluating effect thereof” (MARUHA NICHIRO CORPORATION, priority 2018, dated 2026)
Marks after values point to notes of the source that are not given here.

Tests used:
[1] = tested on: salt-sensitive spontaneously hypertensive stroke-prone rats; conditions: Non-Patent Documents 1 and 2; cited from earlier work
[2] = tested on: spontaneously hypertensive stroke-prone rats (SHR-SP/Izm); assay: Serum and urine biochemical tests, comparison of DHA-bound TG and EE (Example 3); assay type: in vivo, rat; conditions: H-DHA-TG 2,000, DHA-EE 1,303, Tri-DHA-TG 1,246 mg/kg once a day gavage, 4 weeks; for Urine Alb / Urine Alb/CRE / Urine TP: median
Experimental: (§1) Spontaneously hypertensive stroke-prone rats (SHR-SP/Izm, Nihon SLC Co., Ltd.) aged 4 weeks were acclimatized for 1 week, then fed an 8-mass % salt-containing solid diet (AlN-93G) and a drinking water freely, and once a day, DHA highly enriched triglycerides (H-DHA-TG), esters (DHA-EE) used in Example 2, and triglycerides (Tri-DHA-TG) prepared in Example 2 were administered by gavage with the amounts shown in Table 3,
(§2) In addition, urine samples were collected before the start of administration and after 4 weeks of administration under fasting for 16 hours, and biochemical tests and metabolite analysis by NMR were performed by conventional methods.
At the end of the test, blood was collected from the abdominal vena cava and necropsied.
Biochemical metabolite analysis was performed on the obtained serum by conventional methods.

[3] = tested on: spontaneously hypertensive stroke-prone rats (SHR-SP/Izm); assay: Urine metabolite analysis by NMR (Example 3); assay type: in vivo, rat; conditions: for Urine metabolic concentration: 4-Hydroxyphenylacetate / Urine metabolic concentration: Glycine / Urine metabolic concentration: N-Phenylacetylglycine / Urine metabolic concentration: Creatinine: Example 3, H-DHA-TG 2,000, DHA-EE 1,303, Tri-DHA-TG 1,246 mg/kg, 4 weeks; for Urine metabolic concentration: Creatinine: normaliser
Experimental: as §1, §2

[4] = tested on: diabetic disease model animals; conditions: Non-Patent Document 4; cited from earlier work
[5] = tested on: spontaneously hypertensive stroke-prone rats (SHR-SP/Izm); assay: Kidney pathology scores GSI and AIS (Example 3); assay type: in vivo, rat; conditions: H-DHA-TG 2,000, DHA-EE 1,303, Tri-DHA-TG 1,246 mg/kg once a day gavage, 4 weeks, group average
Experimental: as §1
The kidneys were fixed in formalin solution, and then each staining was performed by PAS-staining, Sirius-Red-staining, and immunostaining for α-SMA, CD68, Desmin, and Kim−1 for pathological observations.
For PAS-staining, along with pathomorphological observations, glomerulosclerosis score (GSI), renal artery injury score (AIS) were performed with reference to Clinical and Experimental Hypertension, 2012, 34 (2) 99-106.

| Molecule | Renal function protection [1] | Serum BUN [2] | Serum CRE [2] | Urine CRE [2] | Urine Alb [2] | Urine Alb/CRE [2] | Urine TP [2] | Urine metabolic concentration: 4-Hydroxyphenylacetate [3] | Urine metabolic concentration: Glycine [3] | Urine metabolic concentration: N-Phenylacetylglycine [3] | Urine metabolic concentration: Creatinine [3] | Blood glucose levels [4] | AIS (renal artery injury score) [5] | GSI (glomerulosclerosis score) [5] | Significant differences of urine metabolites vs control, triglycerides compared with esters ([3]; Example 3, Table 6) |
| --- | --- | --- | --- | --- | --- | --- | --- | --- | --- | --- | --- | --- | --- | --- | --- |
| CC/C=C\C/C=C\C/C=C\C/C=C\C/C=C\C/C=C\CCC(=O)OCC [DHA-EE, ethyl esters of docosahexaenoic acid] | renal function was protected | 25.1 ± 3.7 mg/dL | 0.28 ± 0.04 mg/dL | 3.23 ± 0.59 mg/16 h | 1054 ug/16 h | 4.44^† | 3.2 mg/16 h | 0.09 ± 0.03 (μM)/Cre(μM) | 0.18 ± 0.04 (μM)/Cre(μM) | 0.34 ± 0.09 (μM)/Cre(μM) | 1.00 ± 0.00 (μM)/Cre(μM) | lowered blood glucose levels to the same extent as control | 19.4 | 7.1 |  |
| CC/C=C\C/C=C\C/C=C\C/C=C\C/C=C\CCCC(=O)OCC [EPA-EE, ethyl esters of eicosapentaenoic acid] | renal function was protected |  |  |  |  |  |  |  |  |  |  | no effect was observed |  |  |  |
| CC/C=C\C/C=C\C/C=C\C/C=C\C/C=C\C/C=C\CCC(=O)OCC(COC(=O)CC/C=C\C/C=C\C/C=C\C/C=C\C/C=C\C/C=C\CC)OC(=O)CC/C=C\C/C=C\C/C=C\C/C=C\C/C=C\C/C=C\CC [Tri-DHA-TG, tridocosahexaenoyl triglyceride] |  | 25.1 ± 4.2 mg/dL | 0.28 ± 0.06 mg/dL | 3.02 ± 0.47 mg/16 h | 544.95^† ug/16 h | 1.85^† | 3.2^† mg/16 h | 0.12 ± 0.04 (μM)/Cre(μM) | 0.19 ± 0.03 (μM)/Cre(μM) | 0.42 ± 0.08 (μM)/Cre(μM) | 1.00 ± 0.00 (μM)/Cre(μM) |  | 21.1 | 11.4 | more significant differences |
| triglycerides of DHA [DHA-TAG] |  |  |  |  |  |  |  |  |  |  |  | lowered blood glucose levels to the same extent as control |  |  |  |
| triglycerides of EPA [EPA-TAG] |  |  |  |  |  |  |  |  |  |  |  | no effect was observed |  |  |  |
